Entries after “also recorded” stand apart in the source; their conditions may differ. Values belong to the molecule of their own block, whether it stands above or below them.
Experiments:
[1] = DIO-GAN NASH mice: trough plasma compound levels by LC-MS/MS; type: in vivo, C57BL/6JRj mice; settings: plasma 21-24 hours post final dose
Protocol: Terminal plasma samples were harvested by cardiac puncture approximately 21-24 hours after the last administration of compound(s). Terminal plasma samples were analyzed by high resolution LC-MS/MS using a Triple Quad 6500+ instrument. 20 μL of plasma sample was mixed with 200 μL of internal standard solution (100 ng/ml Labetalol+100 ng/ml Tolbutamide in acetonitrile), vortexed, and centrifuged at 4,000 rpm for 15 min at 4° C. […] The internal standard (retention time: 0.76 min), was used for quantification of the glucuronide metabolite of Compound 2 (retention time: 0.77 min). Calibration curves (1-3000 ng/mL) were generated in a matrix of mouse plasma (pooled vehicle control) for each analyte.
Terminal plasma samples collected by cardiac puncture 21-24 hours post final treatment dose (i.e., trough) were analyzed by LC-MS/MS. Values represent mean and standard deviation (SD). ND, not determined.

[2] = biological target: T1, BCRP (Homo sapiens, UniProt Q9UNQ0); assay: In vitro transporter inhibition, BCRP; type: in vitro ADME
T1 sequence (Q9UNQ0 1-655): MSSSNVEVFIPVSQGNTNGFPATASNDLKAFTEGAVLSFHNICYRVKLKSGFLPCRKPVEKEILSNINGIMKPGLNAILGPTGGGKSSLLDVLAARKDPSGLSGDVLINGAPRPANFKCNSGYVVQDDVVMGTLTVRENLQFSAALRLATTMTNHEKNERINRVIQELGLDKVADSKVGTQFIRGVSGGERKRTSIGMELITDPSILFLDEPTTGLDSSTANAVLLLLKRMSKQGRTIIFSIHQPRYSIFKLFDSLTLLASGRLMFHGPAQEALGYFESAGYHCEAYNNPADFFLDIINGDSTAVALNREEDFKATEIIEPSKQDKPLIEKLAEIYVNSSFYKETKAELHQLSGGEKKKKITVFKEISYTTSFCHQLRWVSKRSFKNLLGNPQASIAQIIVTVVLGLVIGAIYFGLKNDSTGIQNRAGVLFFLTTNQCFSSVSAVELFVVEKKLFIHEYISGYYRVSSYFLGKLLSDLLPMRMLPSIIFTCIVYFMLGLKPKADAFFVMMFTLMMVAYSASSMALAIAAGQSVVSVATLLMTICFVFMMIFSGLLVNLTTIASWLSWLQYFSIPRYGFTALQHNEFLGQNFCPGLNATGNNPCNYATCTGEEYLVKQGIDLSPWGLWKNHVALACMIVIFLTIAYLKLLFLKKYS

[3] = tested on: SHBG, Apo B and serum lipids; assay: Multiple ascending dose trial: serum PD biomarkers; type: in vivo, human
Protocol: A multiple-ascending dose clinical trial of Compound 1 was performed.
(See Table 5, FIG. 7.) PK parameters were estimated via noncompartmental methods using Phoenix® WinNonlin® (Certara, LP, Princeton, NJ). Concentrations of serum pharmacodynamic (PD) biomarkers apolipoprotein B (Apo B) and sex hormone binding globulin (SHBG) were measured using an immunoassay and serum lipids were determined using spectrophotometry.
PD sampling was also performed. Percent change from baseline for PD markers were calculated using an ANCOVA model with percent change from baseline as dependent variable, treatment group as fixed effect, and baseline as covariate. Analyses used observed data only without imputation for missing data.

[4] = Single ascending dose trial: adverse event and safety monitoring; type: in vivo, human
Protocol: A single-ascending dose clinical trial of Compound 1 (potassium salt) was performed.

[5] = Pharmacokinetics of 50 mg capsules with or without SLS in beagle dogs; type: in vivo; settings: 50 mg capsule with vs without 5 wt % SLS
[6] = tested on: mouse NASH model; assay: High fat diet + CCl4 mouse NASH model; type: in vivo, C57BL/6J mice
Protocol: C57BL/6J mice were fed a high fat diet for 10 weeks to induce obesity (>38 g BW). Obese mice were injected intraperitoneally (i.p.) twice a week for four weeks with 0.5 μl/g 25% CCl4 (formulated in olive oil) to induce fibrosis, and one group of normal BW mice were injected i.p. twice a week for four weeks with olive oil to serve as a healthy control. […] On CCl4 dosing days, CCl4 was administered at 4 hours post compound or vehicle dosing. On day 27, all animals were fasted for about 16 hours before terminal euthanasia. On day 28, all animals were sacrificed and various biological parameters were analyzed. Total body, liver, heart and brain weight were measured and changes in liver and heart weight were normalized using brain weight.
Liver samples were collected for whole transcriptome analysis by RNA sequencing (RNAseq). RNAseq library (n=5 per group) preparation and sequencing was performed using Illumina standard protocols. Alignment of sequencing reads was performed using STAR aligner software and read counts were estimated using RSEM. Differentially expressed genes (compared to vehicle-treated NASH control mice) were determined using EdgeR software. Gene ontology analysis was performed using Advaita software with fold-change and adjusted p-value cutoffs of >1.5 and <0.05, respectively. Gene ontologies were derived from the Gene Ontology Consortium database (2019 Apr. 26) (Ashburner et al., Gene ontology: Tool for the unification of biology. Nature Genetics 25(1): 25-9 (2000); Gene Ontology Consortium, Creating the Gene Ontology Resource: Design and Implementation. Genome Research 11: 1425-1433 (2001)).

[7] = pH effect on PK performance in beagle dogs; type: in vivo; settings: 10 mg capsule, 5% SLS; pentagastrin vs famotidine pre-treatment, n=3 per group
From the text: To determine the pH effect on PK performance, beagle dogs were divided into two groups (n=3 per group).

[8] = tested on: SHBG, LDL-c and other lipid parameters; assay: Multiple ascending doses in healthy subjects with elevated LDL-c: PD markers; type: in vivo, human; settings: 1, 3, 6 or 10 mg once daily for 14 days
From the text: Secondary Objectives: Evaluate the PK and PD of Compound 1 in healthy subjects with elevated LDL-c following multiple ascending doses of Compound 1.

[9] = Solubilizer compatibility in formulation study; type: physicochemical; settings: co-formulation
From the text: The level of SLS between 1.5% to 5.0% w/w was investigated.

Mean trough analyte concentration (SD) ([1]; treatment group Combo-high, n = 14): 3.3 (1.8) ng/mL
Mean trough analyte concentration (SD) ([1]; treatment group Combo-med, n = 16): 5.8 (3.5) ng/mL
Mean trough analyte concentration (SD) ([1]; treatment group Compound 2 (10 mg/kg), n = 16): 7.4 (3.8) ng/mL
IC50 [2]: 4.39 µM
Structure (SMILES): Cn1cc(C(=O)O)c2ccc(C3CCC(OCc4c(-c5c(Cl)cccc5Cl)noc4C4CC4)CC3)cc21 (centres unmarked) [Compound 2]

increase of exposure (Cmax, AUC) by formulation with 5 wt % SLS [5]: more than 70%
steady state plasma AUC0-∞ sufficient to ensure efficacy ([6]; preclinical animal models): approximately 3,320 ng*hg/mL
pH effect on plasma concentrations [7]: Minimal pH effect
Structure (SMILES): N#Cc1nn(-c2cc(Cl)c(Oc3n[nH]c(=O)c4ccccc34)c(Cl)c2)c(=O)[nH]c1=O [Compound 1, 2-(3,5-dichloro-4-((4-oxo-3,4-dihydrophthalazin-1-yl)oxy)phenyl)-3,5-dioxo-2,3,4,5-tetrahydro-1,2,4-triazine-6-nitrile]
total cholesterol, LDL-c, Apo B, and triglycerides ([3]; all dose levels): Reductions
HDL-c ([3]; day 15): did not significantly change
total cholesterol, LDL-c, Apo B, and triglycerides ([3]; day 15, 10 mg dose cohort): significant reductions
SHBG ([3]; multiple doses, even at 3 mg QD): significant and dose-dependent increases
Heart rates ([4]; 24 hours after single dose): remained stable and within the normal range
plasma AUC0-∞ without any significant side effects ([4]; single ascending dose studies): ≤ 50,000 ng*hg/mL
overall safety and tolerability ([4]; single ascending doses up to 60 mg): overall safe and well-tolerated
TSH, free T3, and free T4 levels ([4]; single doses 3-60 mg): remained within the normal range
bilirubin levels above the normal range ([4]; single doses 3-60 mg): no subjects
cardiac biomarkers (troponin I, CK-MB) or other clinical safety tests ([4]; single doses 3-60 mg): no notable changes
cardiac related AEs (e.g., tachycardia, arrythmias) ([4]; single doses 3-60 mg): No cardiac related AEs
increases in ALT more than 2-times ULN ([4]; single doses 3-60 mg): No subjects
severity of adverse events ([4]; single doses 3-60 mg): mild or moderate in severity
vital signs or ECG parameters ([4]; single doses 3-60 mg): no remarkable changes
liver fibrosis (histology) ([6]; 3 and 10 mpk, 28 days): significantly reduced liver fibrosis
liver inflammation (histology) ([6]; 28 days): trend in inflammation reduction
liver steatosis (histology) ([6]; all doses tested, 28 days): significantly reduced steatosis at all doses tested
serum total cholesterol, triglycerides and ALT ([6]; all doses tested, 28 days): significantly reduced
expression of genes associated with collagen extracellular matrix and hepatic stellate cell activation ([6]; liver RNAseq vs NASH control mice): significant effect
liver/brain weight ([6]; orally once a day for 28 days): significantly reduced
total body weight or heart/brain weight ([6]; orally once a day for 28 days): no effect
SHBG [8]: increased
circulating atherogenic lipid levels including LDL-c, Apo B, total cholesterol, and triglycerides [8]: significant decreases
compatibility with sodium lauryl sulfate (SLS) [9]: good compatibility; also recorded: minimal or no degradation
effect of ionic surfactants (e.g., SLS) on solubility [9]: increased the aqueous solubility; also recorded: dramatic enhancement of solubility at all pH levels
